Data from article PMC12126525, “Mechanism of ATP hydrolysis in the Hsp70 BiP nucleotide-binding domain” (Nature Communications, 2025).
Where “and” joins values, the source holds several entries; their conditions need not be identical. Equal values may be shown once. Each block holds one compound with its values, some of them ahead of it.

Experiments:
BiP NBD [1] = biological target: T1, BiP NBD (Homo sapiens, UniProt P11021); experiment: Single turn-over assay (anion exchange quantification of ATP/ADP); format: biochemical; parameters: His6 (N, cleaved yes); made in house; host or cells: E. coli BL21-(DE3)-Lemo, pET28a vector
Description: We next set out to benchmark these kinetic parameters to independently measured values. Out of the 11 free parameters of the functional cycle, 3 parameters can be commonly accessed with classical experiments (kcat, koff2 and koff5 ). We benchmarked kcat with standard single-turn over experiments[44],[46]. For these experiments, the NBD·ATP complex is initially formed by incubation of an excess of ATP with BiP NBD at 4 °C. At this temperature, it is generally assumed that the hydrolysis rate can be neglected. Unbound nucleotides were removed by gel filtration and the purified NBD·ATP complex was flash frozen. The complex was then incubated at 37 °C for variable time, after which the reaction was quenched by addition of HCl. This step unfolds the NBD, thus immediately stopping the reaction and releasing all educts and products into solution. From the resulting samples, the [ATP]/[ADP] ratio was determined by anion exchange chromatography.
The single turnover experiment starts from a batch of stoichiometrically assembled NBD^ATP complex. ATP hydrolysis and ATP dissociation occur on parallel kinetic pathways, according to Eqs. (1) and (2). At very low protein concentrations [NBD^ATP]≪KD1 , rebinding of ATP after dissociation, as well as the buildup of the products ADP and Pi, can be neglected and the observed ATP decay follows the analytical equation35 ATP/ATP0=koff1/kcat*+kcat/kcat*e^−kcat*t with36 kcat*=kcat+koff1
At proteins concentrations [NBD^ATP]≳KD1 , as it was used in our experiments, ATP rebinding after dissociation cannot be neglected, which is competitive with the product ADP that builds up over time. […]
The ATPase activity of BiP NBD was determined under single-turnover conditions as previously described with minor modifications of the protocol. The main modification was to replace the radioactivity-based detection by a label free anion-exchange based quantification. […] The relative ATP/ADP ratio was determined using an anion chromatography-based assay.

BiP NBD [2] = biological target: T1, BiP NBD; experiment: NMR titration (equilibrium methyl-TROSY) with phosphate; format: binding; parameters: His6 (N, cleaved yes); made in house; host or cells: E. coli BL21-(DE3)-Lemo, pET28a vector; details: for Average IMABAADP.pi/IMABAADP: Supplementary Fig 12 f
BiP NBD [3] = biological target: T1, BiP NBD; experiment: In-cyclo NMR in the presence of 3.3 mM calcium; format: biochemical; parameters: His6 (N, cleaved yes); made in house; host or cells: E. coli BL21-(DE3)-Lemo, pET28a vector
BiP NBD [4] = biological target: T1, BiP NBD; experiment: NMR without ATP regeneration at variable ADP:ATP ratio with 3.3 mM calcium, with and without E2; format: biochemical; parameters: His6 (N, cleaved yes); made in house; host or cells: E. coli BL21-(DE3)-Lemo, pET28a vector; details: replicates
Source text: Finally, we wanted to explore the effect of calcium on conditions with variable ADP concentration that represent the conditions in the ER. We thus exploited our modular experimental setup in the absence of the ATP regeneration system, with and without phosphate, to generate conditions where the ADP concentration increases (Supplementary Fig. 18). We determined the ATP hydrolysis rate and the populations of the different states for different ADP:ATP ratios and phosphate concentrations. We observed NMR signals corresponding to the NBD·ADP·Ca^2+-bound state, but not the NBD·Ca^2+-bound state, with population and occupancy time increasing with the ADP concentration (Fig. 5e). When free phosphate was allowed to accumulate in parallel, the occupancy time of the NBD·ADP·Ca^2+ state decreased, showing that the phosphate prevents the calcium from binding (Fig. 5f).
Supplementary Figure 18. NBD·ADP·Ca2+ forms as an off-cycle pathway state. a, 2D [13C,1H]-TROSY spectrum of methyl-labeled NBD in the presence of ADP:ATP 1:3, 3.3 mM calcium ([Mg2+]/[Ca2+]=3) and E2 active. State- and sequence-specific resonance assignments are indicated for the ADP·Ca2+- bound state (dark-pink), ADP-bound (light blue), ADP·Pi-bound (dark blue) and ATP-bound (red) states. b, Selected sections of 2D [13C,1H]-methyl-TROSY spectra of residue Val50cg1 in the presence of ADP:ATP 1:3 (pink) and with 3.3 mM calcium ([Mg2+]/[Ca2+]=3) (black) compared to in-cyclo no calcium (pink) and the equilibrium experiments of NBD with 3.3 mM calcium ([Mg2+]/[Ca2+]=3) (ligh-pink), NBD with 1 mM ADP and 3.3 mM calcium ([Mg2+]/[Ca2+]=3) (dark-pink). c,d, same as in (a,b) for the system in the absence of E2, i.e the phosphate concentration increases with ATP hydrolysis.

BiP = details: cited from earlier work

T1 sequence (P11021 19-406): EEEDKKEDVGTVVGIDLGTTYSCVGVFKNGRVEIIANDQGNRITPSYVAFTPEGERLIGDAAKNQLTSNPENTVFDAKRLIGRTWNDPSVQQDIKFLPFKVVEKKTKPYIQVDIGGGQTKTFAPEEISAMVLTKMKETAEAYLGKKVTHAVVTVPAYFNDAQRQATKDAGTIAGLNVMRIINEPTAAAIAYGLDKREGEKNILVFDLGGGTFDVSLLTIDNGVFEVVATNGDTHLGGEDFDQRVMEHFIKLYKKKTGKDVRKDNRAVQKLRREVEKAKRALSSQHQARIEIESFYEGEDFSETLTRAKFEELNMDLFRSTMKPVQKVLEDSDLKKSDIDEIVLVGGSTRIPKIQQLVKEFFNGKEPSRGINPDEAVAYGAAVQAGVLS

- kcat* (single turn-over) (BiP NBD [1]; 37 °C, monoexponential fit): 0.071 s⁻¹ and 0.071 ± 0.02 s⁻¹
- kcat single turn-over average (BiP NBD [1]; Supplementary Fig 11b): 0.071 s⁻¹
SMILES: Nc1ncnc2c1ncn2[C@@H]1O[C@H](COP(=O)(O)OP(=O)(O)OP(=O)(O)O)[C@@H](O)[C@H]1O [ATP]
- kcat single turn-over (BiP NBD [1]; Supplementary Fig 11b, replicates [1]-[6]): 0.085 s⁻¹ and 0.070 s⁻¹ and 0.057 s⁻¹ and 0.075 s⁻¹ and 0.073 s⁻¹

- Kd (BiP NBD [2]; 4MABA: Pi binding to NBD·MABA-ADP, 1 mM MABA-ADP): 270 ± 40 µM
- Kd (BiP NBD [2]; KD3: Pi binding to apo NBD, 100 μM BiP NBD, 25 °C): 310 ± 40 µM
- Kd (BiP NBD [2]; KD4: Pi binding to NBD·ADP, 1 mM ADP): 280 ± 50 µM
- Average IMABAADP.pi/IMABAADP (BiP NBD [2]; Pi 0.15 mM): 0.3154
- Average IMABAADP.pi/IMABAADP (BiP NBD [2]; Pi 0.25 mM): 0.5289
- Average IMABAADP.pi/IMABAADP (BiP NBD [2]; Pi 0.5 mM): 0.6366
SMILES: O=P(O)(O)O [Pi]

- molecular hydrolysis rate in-cyclo khydr (BiP NBD [3]; 3.3 mM calcium, 10 mM magnesium): 1.43 ± 0.06 min⁻¹
- cycle timing (BiP NBD [3]; Fig 5d source data, 3.3 mM calcium: replicates [1]-[3] and average): 40.4 s and 41.4 s and 43.7 s
- cycle (BiP NBD [4]; Fig 5e: with E2, 3.3 mM calcium, ADP:ATP 1:2): 151.31 s and 139.92 s and 133.95 s
- cycle (BiP NBD [4]; Fig 5e: with E2, 3.3 mM calcium, ADP:ATP 1:3): 107.58 s and 118.91 s and 122.37 s
- cycle (BiP NBD [4]; Fig 5e: with E2, 3.3 mM calcium, ADP:ATP 1:4): 78.87 s and 92.84 s and 108.72 s
- cycle (BiP NBD [4]; Fig 5e: with E2, 3.3 mM calcium, ADP:ATP 1:5): 55.19 s and 43.78 s and 57.90 s
- cycle (BiP NBD [4]; Fig 5f: without E2, 3.3 mM calcium, ADP:ATP 1:2): 191.98 s and 221.37 s and 190.59 s
- cycle (BiP NBD [4]; Fig 5f: without E2, 3.3 mM calcium, ADP:ATP 1:3): 130.46 s and 156.85 s and 135.76 s
- cycle (BiP NBD [4]; Fig 5f: without E2, 3.3 mM calcium, ADP:ATP 1:4): 97.52 s and 113.75 s and 85.45 s
- cycle (BiP NBD [4]; Fig 5f: without E2, 3.3 mM calcium, ADP:ATP 1:5): 72.26 s and 65.96 s and 73.59 s
SMILES: [Ca+2] [calcium]
- khydr (BiP NBD [3]; Fig 5a source data, 3.3 mM calcium: replicates [1]-[3] and average): 1.484 min⁻¹ and 1.451 min⁻¹ and 1.372 min⁻¹
- increase of the MABA-ADP-bound lifetime (BiP; concentration-dependent): up to 4 fold
- decrease of the ATP hydrolysis rate of BiP (BiP; physiological calcium levels compared to no calcium): 2 fold
